pIC50: −log10 of the molar value.
Tests used:
[1] = Apparent intrinsic clearance in human liver microsomes; type: ADME; conditions: read-out: CLH(app)
Gamma-secretase = assay: Modulation of gamma-secretase (unknown origin) expressed in CHO cells overexpressing human wild type APP assessed as reduction of amyloid beta 42 level after 24 hrs by ELISA; type: cell-based
MDR1 (human) = assay: Efflux ratio of permeability in MDCK cells expressing human MDR1; type: ADME, cell-based, Canis lupus familiaris; conditions: dog
[2] = Apparent intrinsic clearance in rat liver microsomes; type: ADME; conditions: read-out: CLH(app)
[3] = Bioavailability in rat at 1 mg/kg, iv and 5 mg/kg, po; type: ADME, organism-based; conditions: in vivo

Compound	CLint scaled [1]	pIC50 (Gamma-secretase)	efflux ratio (MDR1 (human))	CLint scaled [2]	bioavailability [3]
Cc1cn(-c2ccc3c(=O)n(Cc4cccc(C(F)(F)F)c4)ccc3c2O)cn1	12.3 mL/min/kg	6.04	1.1		
Cc1cn(-c2ccc3n(c2=O)CCN(CCOc2ccccc2Cl)C3=O)cn1	< 10.4 mL/min/kg	5.82	1.5	117 mL/min/kg	
COc1cc(C(=O)NCc2cccc(C(F)(F)F)c2)ccc1-n1cnc(C)c1	27.8 mL/min/kg	6.18			
Cc1cn(-c2ccc3n(c2=O)CCN(CCOc2ccccc2C(F)(F)F)C3=O)cn1	12.7 mL/min/kg	6.51	1.5	97 mL/min/kg	23%
